This experiment deals with T1, human ferroportin (Homo sapiens, UniProt Q9NP59).
T1 construct: luciferase reporter (probably NanoLuc, inferred from the Nano-Glo Luciferase Assay System read-out); expressed in transfected cells; host or cells: CHO cells, stably transfected, expression induced with doxycycline
T1 sequence (Q9NP59 1-571): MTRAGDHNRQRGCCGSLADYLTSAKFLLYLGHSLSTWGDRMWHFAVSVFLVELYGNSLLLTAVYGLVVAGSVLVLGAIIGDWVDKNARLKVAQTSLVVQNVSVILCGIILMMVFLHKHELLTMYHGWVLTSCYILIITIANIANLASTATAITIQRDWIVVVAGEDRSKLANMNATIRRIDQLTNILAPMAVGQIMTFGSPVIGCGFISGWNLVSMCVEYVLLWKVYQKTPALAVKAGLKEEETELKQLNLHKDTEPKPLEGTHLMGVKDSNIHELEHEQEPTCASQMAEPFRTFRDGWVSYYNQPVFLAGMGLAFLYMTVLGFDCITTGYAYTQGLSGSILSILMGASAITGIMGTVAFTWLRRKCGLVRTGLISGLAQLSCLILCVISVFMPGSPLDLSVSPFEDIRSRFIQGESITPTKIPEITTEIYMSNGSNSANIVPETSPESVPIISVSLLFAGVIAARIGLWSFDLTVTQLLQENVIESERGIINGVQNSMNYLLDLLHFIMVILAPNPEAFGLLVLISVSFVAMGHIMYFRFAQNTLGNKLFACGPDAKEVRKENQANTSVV
Kind of experiment: In-vitro ferroportin internalization assay (luciferase reporter). Type of experiment: cell-based. The settings on record: average pEC50; stably-transfected CHO cell line expressing human ferroportin tagged to a luciferase reporter; 6 h incubation with test compound. The protocol: The protocol for this assay is generally as described in WO2018/128828, incorporated herein by reference in its entirety. Functional internalization of ferroportin protein was measured using a stably-transfected CHO cell line expressing the human ferroportin tagged to a luciferase reporter. Cells were plated for 24 h in the presence of ferric ammonium citrate (FAC). Ferroportin protein expression was induced with doxycycline for 24 h. The next day, the compounds were added. Test compounds were dissolved in DMSO. Cells were incubated with the test compounds for 6 h, and subsequently luciferase activity was measured using the Nano-Glo Luciferase Assay System and Glomax (Promega, Madison, Wis.). The average pEC50 was determined for the test compounds.
For `CC(C#N)CN(C)c1nc(-c2ccccn2)nc2sc(-c3ccccc3)cc12` (centres unmarked) [Compound 201, 2-methyl-3-{methyl[6-phenyl-2-(pyridin-2-yl)thieno[2,3-d]pyrimidin-4-yl]amino}propanenitrile], the negative logarithm of the EC50 (pEC50) is on record as 6. With `CCN(CC)CCCNc1nc(-c2ccccn2)nc2scc(-c3ccccc3)c12` [Compound 202, N-[3-(diethylamino)propyl]-5-phenyl-2-(pyridin-2-yl)thieno[2,3-d]pyrimidin-4-amine] the figure was 5.7. The figure for `c1ccc(-c2csc3nc(-c4ccccn4)nc(NC4CC4)c23)cc1` [Compound 203, N-cyclopropyl-5-phenyl-2-(pyridin-2-yl)thieno[2,3-d]pyrimidin-4-amine] is 5.7; for `c1ccc(-c2csc3nc(-c4ccccn4)nc(N4CCC4)c23)cc1` [Compound 204, 2-[4-(azetidin-1-yl)-5-phenylthieno[2,3-d]pyrimidin-2-yl]pyridine] it is 5.6; for `c1ccc(-c2csc3nc(-c4ccccn4)nc(N4CCCC4)c23)cc1` [Compound 205, 2-[5-phenyl-4-(pyrrolidin-1-yl)thieno[2,3-d]pyrimidin-2-yl]pyridine] it is 5.9. With `c1ccc(-c2csc3nc(-c4ccccn4)nc(N4CCN(c5ccccc5)CC4)c23)cc1` [Compound 206, 1-phenyl-4-[5-phenyl-2-(pyridin-2-yl)thieno[2,3-d]pyrimidin-4-yl]piperazine] the figure was 5.7; with `c1ccc(-c2csc3nc(-c4ccccn4)nc(N4CCN(c5ccccn5)CC4)c23)cc1` [Compound 207, 1-[5-phenyl-2-(pyridin-2-yl)thieno[2,3-d]pyrimidin-4-yl]-4-(pyridin-2-yl)piperazine], 6.

`c1ccc(-c2csc3nc(-c4ccccn4)nc(N4CCOCC4)c23)cc1` [Compound 208, 4-[5-phenyl-2-(pyridin-2-yl)thieno[2,3-d]pyrimidin-4-yl]morpholine]: the pEC50 worked out at 5.9. The figure for `COCC(C)Nc1nc(-c2ccccn2)nc2sc(C)c(-c3ccccc3)c12` (centres unmarked) [Compound 209, N-(1-methoxypropan-2-yl)-6-methyl-5-phenyl-2-(pyridin-2-yl)thieno[2,3-d]pyrimidin-4-amine] is 6; for `COCCN(CCOC)c1nc(-c2ccccn2)nc2sc(-c3ccccc3)cc12` [Compound 210, N,N-bis(2-methoxyethyl)-6-phenyl-2-(pyridin-2-yl)thieno[2,3-d]pyrimidin-4-amine] it is 6.4. In turn, `COCCN(CCOC)c1nc(-c2ccccn2)nc2scc(-c3ccccc3)c12` [Compound 211, N,N-bis(2-methoxyethyl)-5-phenyl-2-(pyridin-2-yl)thieno[2,3-d]pyrimidin-4-amine] gave a pEC50 of 6.7. With `COCCNc1nc(-c2ccccn2)nc2scc(-c3ccccc3)c12` [Compound 212, N-(2-methoxyethyl)-5-phenyl-2-(pyridin-2-yl)thieno[2,3-d]pyrimidin-4-amine] the figure was 5.9. `OCCOCCNc1nc(-c2ccccn2)nc2scc(-c3ccccc3)c12` [Compound 213, 2-(2-{[5-phenyl-2-(pyridin-2-yl)thieno[2,3-d]pyrimidin-4-yl]amino}ethoxy)ethan-1-ol] showed a negative logarithm of the EC50 (pEC50) of 5.7. With `CC(=O)N1CCN(c2nc(-c3ccccn3)nc3scc(-c4ccccc4)c23)CC1` [Compound 214, 1-{4-[5-phenyl-2-(pyridin-2-yl)thieno[2,3-d]pyrimidin-4-yl]piperazin-1-yl}ethan-1-one] the figure was 5.8. The figure for `CC(Nc1nc(-c2ccccn2)nc2scc(-c3ccccc3)c12)C(=O)NC(C)(C)C` (centres unmarked) [Compound 215, N-tert-butyl-2-{[5-phenyl-2-(pyridin-2-yl)thieno[2,3-d]pyrimidin-4-yl]amino}propanamide] is 6.8; for `CNC(=O)CCN(C)c1nc(-c2ccccn2)nc2scc(-c3ccccc3)c12` [Compound 216, N-methyl-3-{methyl[5-phenyl-2-(pyridin-2-yl)thieno[2,3-d]pyrimidin-4-yl]amino}propanamide] it is 5.7. `CNC(=O)CNc1nc(-c2ccccn2)nc2scc(-c3ccccc3)c12` [Compound 217, N-methyl-2-{[5-phenyl-2-(pyridin-2-yl)thieno[2,3-d]pyrimidin-4-yl]amino}acetamide] came in with a pEC50 of 5.3.

Molecule `O=C(CNc1nc(-c2ccccn2)nc2scc(-c3ccccc3)c12)NC1CC1` [Compound 218, N-cyclopropyl-2-{[5-phenyl-2-(pyridin-2-yl)thieno[2,3-d]pyrimidin-4-yl]amino}acetamide] had a pEC50 of 5.5. With `CCCNC(=O)CNc1nc(-c2ccccn2)nc2scc(-c3ccccc3)c12` [Compound 219, 2-{[5-phenyl-2-(pyridin-2-yl)thieno[2,3-d]pyrimidin-4-yl]amino}-N-propylacetamide] the figure was 6; with `NC(=O)NCCCCNc1nc(-c2ccccn2)nc2scc(-c3ccccc3)c12` [Compound 220, (4-{[5-phenyl-2-(pyridin-2-yl)thieno[2,3-d]pyrimidin-4-yl]amino}butyl)urea], 6. The figure for `O=C1CCN(c2nc(-c3ccccn3)nc3scc(-c4ccccc4)c23)CC1` [Compound 221, 1-[5-phenyl-2-(pyridin-2-yl)thieno[2,3-d]pyrimidin-4-yl]piperidin-4-one] is 6; for `OC1CCN(c2nc(-c3ccccn3)nc3scc(-c4ccccc4)c23)CC1` [Compound 222, 1-[5-phenyl-2-(pyridin-2-yl)thieno[2,3-d]pyrimidin-4-yl]piperidin-4-ol] it is 6; for `CN(CCO)c1nc(-c2ccccn2)nc2sc(-c3ccccc3)cc12` [Compound 223, 2-{methyl[6-phenyl-2-(pyridin-2-yl)thieno[2,3-d]pyrimidin-4-yl]amino}ethan-1-ol] it is 5.6. The figure for `OCCN1CCN(c2nc(-c3ccccn3)nc3scc(-c4ccccc4)c23)CC1` [Compound 224, 2-{4-[5-phenyl-2-(pyridin-2-yl)thieno[2,3-d]pyrimidin-4-yl]piperazin-1-yl}ethan-1-ol] is 5.3; for `OCCNc1nc(-c2ccccn2)nc2scc(-c3ccccc3)c12` [Compound 225, 2-{[5-phenyl-2-(pyridin-2-yl)thieno[2,3-d]pyrimidin-4-yl]amino}ethan-1-ol] it is 5.3; for `CS(=O)(=O)CCNc1nc(-c2ccccn2)nc2scc(-c3ccccc3)c12` [Compound 226, N-(2-methanesulfonylethyl)-5-phenyl-2-(pyridin-2-yl)thieno[2,3-d]pyrimidin-4-amine] it is 5.8. For the molecule `O=C1C(Nc2cc(C(F)(F)F)nc(-c3ccccn3)n2)CN1c1ccc(F)cc1` (centres unmarked) [Compound 227, 1-(4-fluorophenyl)-3-{[2-(pyridin-2-yl)-6-(trifluoromethyl)pyrimidin-4-yl]amino}azetidin-2-one], the pEC50 turned out to be 4.8. The figure for `O=C1C(Nc2cc(C(F)(F)F)nc(-c3ccccn3)n2)CCN1c1ccccc1` (centres unmarked) [Compound 228, 1-phenyl-3-{[2-(pyridin-2-yl)-6-(trifluoromethyl)pyrimidin-4-yl]amino}pyrrolidin-2-one] is 5.7. With `Cc1cc(NCCCn2ccnc2)nc(-c2ccccn2)n1` [Compound 229, N-[3-(1H-imidazol-1-yl)propyl]-6-methyl-2-(pyridin-2-yl)pyrimidin-4-amine] the figure was less than 5.0. With `CCc1cc(NCCN2CCN(CC)CC2)nc(-c2ccccn2)n1` [Compound 230, 6-ethyl-N-[2-(4-ethylpiperazin-1-yl)ethyl]-2-(pyridin-2-yl)pyrimidin-4-amine] the figure was 5.3; with `Cc1cc(NCCc2cccnc2)nc(-c2ccccn2)n1` [Compound 231, 6-methyl-2-(pyridin-2-yl)-N-[2-(pyridin-3-yl)ethyl]pyrimidin-4-amine], 5.4; with `Cc1cc(NCCC(=O)N2CCCCCC2)nc(-c2ccccn2)n1` [Compound 232, 1-(azepan-1-yl)-3-{[6-methyl-2-(pyridin-2-yl)pyrimidin-4-yl]amino}propan-1-one], 5.5. With `Cc1cc(NCCNC(=O)Cc2ccccc2)nc(-c2ccccn2)n1` [Compound 233, N-(2-{[6-methyl-2-(pyridin-2-yl)pyrimidin-4-yl]amino}ethyl)-2-phenylacetamide], the pEC50 stood at 5.2.

On to `CCc1cc(NCCNC(=O)NC2CCCCC2)nc(-c2ccccn2)n1` [Compound 234, 1-cyclohexyl-3-(2-{[6-ethyl-2-(pyridin-2-yl)pyrimidin-4-yl]amino}ethyl)urea], for which the pEC50 turned out to be 5.4. With `Cc1cc(NCCC(=O)NCc2ccncc2)nc(-c2ccccn2)n1` [Compound 235, 3-{[6-methyl-2-(pyridin-2-yl)pyrimidin-4-yl]amino}-N-[(pyridin-4-yl)methyl]propanamide] the figure was 5.3.

Values taken from patent US20230226074A1, “METHODS OF USE FOR PYRIMIDINES AS FERROPORTIN INHIBITORS” (Global Blood Therapeutics, Inc., priority 2020, published 2023).
